Structures can show the parent of a compound that is named as a salt. Where two headings read alike, the source gives them in different places.
What was measured:
[1] = test system: two-cycle DSS colitis model; assay: Two-cycle DSS colitis model, concomitant RvE1-Mg-di-lysinate and 5-ASA; format: in vivo, mouse; settings: once-daily, RvE1-Mg-Lys 1.5 ug/d, 5-ASA 625 ug/d, alone or combined; for Colon Length / Normalized Spleen Weight / Total Histopath Score: at sacrifice; for Disease Activity Index: terminal (Day 27)
Description: (§1) In the study described in Example 17, a sub-chronic model was used to induce colitis in 8-week old C57B16/J mice by two cycles of DSS separated by a 10-day recovery period. Once-daily RvE1-Mg-di-lysinate treatment (15 ug/day) was initiated on Day 20, after DSS-induced colitis was established, and continued for 7 days via oral gavage, with mice sacrificed at the end of Day 27. This sub-chronic, 2-cycle DSS protocol was used to induce inflammation with an immunological profile that better models human IBD than a single cycle of DSS. Oh S Y et al. Comparison of experimental mouse models of inflammatory bowel disease. Int J Mol Med. 2014; 33(2):333-40. This experimental system also provides a representative model for treating patients with active disease where the therapeutic objective is induction of remission. This is important in human IBD because most patients have recurring disease flares. In addition, this study compared RvE1-Mg-di-lysinate to 5-aminosalicylate (5-ASA), which is used as standard-of-care first-line therapy for induction and maintenance of remission in ulcerative colitis and also for certain phenotypes of Crohn's Disease.
(§2) Disease activity was assessed daily using the same Disease Activity Index (DAI) that was used in Example 16. Following sacrifice, colons were excised, flushed with ice-cold PBS, their lengths were measured. Subsequently, H&E-stained colon tissue sections from each animal were also scored using an established scoring system of histopathological disease activity. See Dieleman L A, Palmen M J, Akol H, et al. Chronic experimental colitis induced by dextran sulphate sodium (DSS) is characterized by Th1 and Th2 cytokines. Clin Exp Immunol. 1998; 114(3):385-91.
In this study, we again used the two-cycle DSS colitis model described above, but with once-daily concomitant therapy of RvE1-Mg-di-lysinate (1.5 ug/day) and 5-ASA (625 ug/day). This co-therapy model was used because many patients that would be candidates for RvE1-Mg-di-lysinate treatment will likely continue taking 5-ASA, as this is common clinical practice even when patient are not well controlled on 5-ASA monotherapy.

[2] = Chemical stability against degradation, HPLC, solid in open test tubes at room temperature; format: physicochemical; settings: open test tube, room temperature 68-72 F, relative humidity 20-40%
Description: The stability of selected SPMs and their ionic derivatives based on Formulas I and IV was evaluated. The parent SPM and its solid ionic derivative were place in open test tubes and maintained at room temperature between 68-72 F and relative humidity between 20-40% for 6 or 8 weeks. […] Briefly, HPLC analysis was performed on a PFP column (Poroshell 120, PFP, 4.6×150 mm, […], Agilent), mounted on a Gilson HPLC system equipped with an ELS detector. The mobile phase consisted of a gradient between solution A, water, and solution B, acetonitrile, both containing 0.1% trifluoroacetic acid. The gradient program was 30-80% with respect to solution B. The flow rate was 0.5 mL/min. The appearance of new HPLC peaks as compared to the baseline HPLC tracing at the initial time point is indicative of decomposition products and the lack of stability. The absence of such new HPLC peaks the subsequent time points is indicative of stability.

[3] = test system: dextran sulfate sodium (DSS) mouse model of colitis; assay: Dextran sulfate sodium (DSS) mouse model of colitis, acute, 7 days DSS; format: in vivo; settings: RvE1-Mg-di-lysinate 15 ug/day or equimolar RvE1; for Colon Length / Normalized Spleen Weight: at sacrifice after 7 days DSS, once-daily oral gavage; for Disease Activity Index: study day 7, 2% DSS in drinking water 7 days, once-daily oral gavage from day 0
Description: A representative compound of Formula IV, RvE1-Mg-di-lysinate, was tested for efficacy in the dextran sulfate sodium (DSS) mouse model of colitis. In this model system, DSS exposure disrupts intestinal barrier function, stimulating local inflammation and inducing a colitis phenotype that mimics the clinical and histopathological features of IBD. See e.g., Laroui H et al. Dextran sodium sulfate (DSS) induces colitis in mice by forming nano-lipocomplexes with medium-chain-length fatty acids in the colon. PLoS ONE. 2012; 7 (3):e32084.
In the present study, 8-week old male C57Bl/6J mice were randomized by weight to three experimental groups and administered 2% DSS (w/v) in drinking water for 7 days. Beginning on study day 0, animals were administered either RvE-Mg-di-lysinate (RvE-Mg-Lys), an equimolar dose of RvE1, or vehicle via once-daily oral gavage. Disease activity was assessed daily using an established Disease Activity Index (DAI). See e.g., Morin C, Blier P U, Fortin S. MAG-EPA reduces severity of DSS-induced colitis in rats. Am J Physiol Gastrointest Liver Physiol. 2016; 310 (10):G808-21. All animals were sacrificed after 7 days of DSS exposure and colons and spleens were harvested. Gross morphological markers of disease activity, including colon length and normalized spleen weight (mg per g body weight) were assessed.
The model system described in Example 16 represents an acute model of human IBD wherein once daily RvE1-Mg-di-lysinate treatment at a dose of 15 ug/day was used in a prophylactic mode to mitigate the onset of intestinal and systemic inflammation induced by administration of DSS. This is relevant to patients in need of maintenance therapy to prevent the recurrence of active disease.

[4] = test system: DSS-induced colitis; assay: Sub-chronic two-cycle DSS colitis model, treatment from Day 20; format: in vivo, mouse; settings: for Colon Length / Disease Activity Index / Normalized Spleen Weight: Table 7, two cycles of DSS, once-daily oral gavage Day 20-27, 15 ug/day; for Reduction in DAI relative to Disease Control: 15 ug/day oral from Day 20
Description: as §1, §2

[5] = Single oral dose pharmacokinetics: RvE1 exposure in blood plasma, small intestine tissue and colon tissue; format: in vivo, mouse; settings: for Timing of RvE1 Cmax: oral administration; for Cmax / Tmax / AUC(0-t): male, C57BL6/J, mouse, single oral dose 10 mg/kg RvE1-Mg-di-lysinate; for AUC(0-t): read-out: AUC0-8 of RvE1
Description: To establish the oral pharmacokinetics (PK) of RvE1-Mg-di-lysinate, a study was conducted to investigate RvE1 exposure in blood plasma, small intestine tissue, and colon tissue following a single oral dose of RvE1-Mg-di-lysinate (10 mg/kg) in 8-week old male C57BL6/J mice at various time points up to 8 hours post-dose. RvE1 levels were quantified in all tissue samples by HPLC-MS/MS. Pharmacokinetic curves for all tissue compartments are shown in FIG. 5 and a summary of pharmacokinetic metrics is shown in Table 9.

[6] = Pharmacokinetic analysis of blood and colon tissue after intracolonic administration; format: in vivo; settings: mouse, 15 ug/day; for Tmax: read-out: RvE1 Tmax (converted)
Text: Pharmacokinetic analysis of blood and colon tissue samples were collected in the course of the intracolonic efficacy study and these confirmed that intracolonic administration of RvE1-Mg-di-lysinate is associated with predominantly local RvE1 exposure and minimal uptake into circulation.

[7] = test system: two-cycle DSS colitis model; assay: Two-cycle DSS colitis model, intracolonic versus oral administration; format: in vivo, mouse; settings: 15 ug/d, Day 20-27
Text: To further test the biological effects on disease activity of luminal absorption of RvE1 administered orally in the form of RvE1-Mg-di-lysinate, we compared direct intracolonic administration (similar to an enema) with oral administration. Whereas we had previously established that oral administration of RvE1-Mg-di-lysinate results in systemic and local colonic exposure to RvE1, intracolonic administration results in predominantly local exposure. We again used the two-cycle DSS colitis model described above, with treatment initiated on Day 20 and continued for 7 days, with mice sacrificed at the end of Day 27. To facilitate intracolonic drug delivery, mice were anesthetized via exposure to 2-4% isoflurane gas. Intracolonic administration of RvE1-Mg-di-lysinate or vehicle was performed, with all animals inverted for 5 minutes following dose administration. Intracolonic administration of RvE1-Mg-di-lysinate was associated with a significant reduction in DAI (P<0.01), colon length (P<0.05), spleen weight (P<0.05) and histopathological disease activity (P<0.05).

[8] = small intestine tissue, Small Intestine
[9] = at sacrifice Day 27, 15 ug/day oral, P<0.05

## Nc1ccc(O)c(C(=O)O)c1 [Compound 5-ASA, 5-aminosalicylate, reference compound]
[1]
  Colon Length: 78.7 ± 6.7 mm
  Normalized Spleen Weight: 4.1 ± 1.3 mg/g BW
  Total Histopath Score: 16 ± 3.8
  Disease Activity Index: 3.3 ± 0.8

## CC[C@@H](O)/C=C/C=C\C[C@@H](O)/C=C/C=C/C=C\[C@@H](O)CCCC(=O)O [RvE1 Ca di-lysinate, bis(RvE1) calcium L-lysinate salt]
[2]; 6 weeks
  Degradation products by HPLC (chemical stability): No additional peaks corresponding to degradation products were observed

## CC[C@@H](O)/C=C/C=C\C[C@@H](O)/C=C/C=C/C=C\[C@@H](O)CCCC(=O)O [RvE1 lys lys, RvE1 (L,L)-lysyllysine salt]
[2]; 8 weeks
  Degradation products by HPLC (chemical stability): without degradation products

## CC[C@@H](O)/C=C/C=C\C[C@@H](O)/C=C/C=C/C=C\[C@@H](O)CCCC(=O)O [RvE1, (5S,6Z,8E,10E,12R,14Z,16E,18R)-5,12,18-trihydroxyicosa-6,8,10,14,16-pentaenoic acid, reference compound]
[3]
  Colon Length: 75.2 ± 7.6 mm
  Normalized Spleen Weight: 3.9 ± 0.7 mg/g BW
  Disease Activity Index: 5.6 ± 1.1
[2]; 8 weeks
  Degradation products by HPLC (chemical stability): extensively degraded
[4]
  Colon Length: 75.2 ± 7.6 mm
  Disease Activity Index: 5.6 ± 1.1
  Normalized Spleen Weight: 3.9 ± 0.7 mg/g BW

## CC[C@@H](O)/C=C/C=C\C[C@@H](O)/C=C/C=C/C=C\[C@@H](O)CCCC(=O)O [RvE1-Mg-Lys, bis(RvE1) magnesium L-lysinate salt]
[3]
  Colon Length: 77.1 ± 7.8 mm
  Normalized Spleen Weight: 3.6 ± 0.9 mg/g BW
  Disease Activity Index: 4.8 ± 1.3
[5]; colon tissue, 15 minutes after oral dose
  Share of total RvE1 detected in colon tissue contributed by the increase at the time of blood plasma Cmax: less than 2%
[5]; colon
  Timing of RvE1 Cmax: 4 h
[5]; colon tissue, Colon
  Cmax: 19.8 ng/mL
  Tmax: 240 min
  AUC(0-t): 72.9 ng·h/mL
[5]; plasma, Blood
  Cmax: 471 ng/mL
  Tmax: 15 min
  AUC(0-t): 128 ng·h/mL
[5]; [8]
  Cmax: 346 ng/mL
  Tmax: 120 min
  AUC(0-t): 533 ng·h/mL
[5]; small intestine
  Timing of RvE1 Cmax: 2 h
[1]
  Colon Length: 77.3 ± 3 mm
  Normalized Spleen Weight: 6.6 ± 0.5 mg/g BW
  Total Histopath Score: 17.6 ± 2.7
  Disease Activity Index: 3.7 ± 1.6
[6]; blood, read-out: Blood Cmax of RvE1
  Cmax: 0.48 ng/mL
[6]; blood
  Tmax: 15 min
[6]; colon tissue, read-out: Colon Cmax of RvE1
  Cmax: 2800 ng/g
[6]; colon
  Tmax: 15 min
[2]; 8 weeks, listed as RvE1 Mg di-lysinate
  Degradation products by HPLC (chemical stability): did not exhibit any degradation products
[7]; Intracolonic
  Colon Length: 83.1 ± 5.4 mm
  Disease Activity Index: 2.6 ± 1.9
  Normalized Spleen Weight: 4.3 ± 0.9 mg/g BW
  Total Histopath Score: 15 ± 2.7
[7]; Oral
  Colon Length: 82.7 ± 5.6 mm
  Disease Activity Index: 2.6 ± 1.8
  Normalized Spleen Weight: 4.4 ± 1.4 mg/g BW
  Total Histopath Score: 15.9 ± 6.0
[4]; Day 21, P<0.01
  Reduction in DAI relative to Disease Control: 24%
[4]; Day 23, P<0.05
  Reduction in DAI relative to Disease Control: 18%
[4]
  Colon Length: 77.1 ± 7.8 mm
  Disease Activity Index: 4.8 ± 1.3
  Normalized Spleen Weight: 3.6 ± 0.9 mg/g BW
[4]; at sacrifice Day 27, 15 ug/day oral
  Histopathologic disease activity vs Disease Control (in words): non-significant reduction
[4]; [9]
  Colon length vs Disease Control (in words): statistically significant increase
  Normalized spleen weight vs Disease Control (in words): statistically significant reduction
[4]; study day 27, 15 ug/day oral Day 20-27
  DAI relative to vehicle control (in words): statistically significant reduction
